Assays:
HS-5 cells = conditions: 24 h; CL, CLsu and conjugates 20 μM; Cipro, TMP, TEL 0.5 μM
[1] = Serum stability in human serum; conditions: human serum (from human male AB plasma), 200 μM, 37 °C, LC-MS
[2] = E. coli (K-12) lysate 0.1 U/mL, compound 200 μM, lysate activities normalized
E. coli = assay: Antibacterial activity before and after treatment with porcine liver esterase; type: cell-based; conditions: [PLE] = 1 U/mL
[3] = Static light scattering before and after addition of PLE; type: physicochemical; conditions: compound 200 μM, [PLE] = 1 U/mL, 24 h
[4] = system: esterase (bioH, yjfP, frsA, ybfF, yfbB, ypfH, yeiG or yqiA) deletion mutants of E. coli; assay: Antibacterial activity against esterase deletion mutants of E. coli; type: cell-based; conditions: eight single esterase gene deletion mutants
[5] = system: ydgR, fepA, ompF deletion mutants of E. coli; type: cell-based; conditions: compared with wild-type E. coli
E. coli (K-12) = assay: Antibacterial activity; type: cell-based; conditions: minimum inhibitory concentration, wild type E. coli (K-12)
Water solubility = type: physicochemical; conditions: in words only

Row | SMILES | MIC (E. coli (K-12)) [µM] | apparent first-order rate constant of hydrolysis [2] [h⁻¹] | change of inhibitory efficacy on addition of exogenous PLE (E. coli) | intensity of static light scattering signal after addition of PLE [3] | reduction of antibacterial activity by deletion of a cytoplasmic esterase [4] | effect of deletion of ydgR, fepA or ompF on bacterial viability under treatment [5] | other results
1 | O=C(O)CCC(=O)OC[C@@H](NC(=O)C(Cl)Cl)[C@H](O)c1ccc([N+](=O)[O-])cc1 [CLsu, chloramphenicol succinate, reference compound] | – | – | – | – | – | – | cytotoxicity against HS-5 cells (HS-5 cells): lower cytotoxicity than CL; conversion to CL after 24 h ([1]; 24 h): less than 15%
2 | O=C(CCC(=O)OC[C@@H](NC(=O)C(Cl)Cl)[C@H](O)c1ccc([N+](=O)[O-])cc1)NCC(=O)N[C@H](CO)C(=O)O [Compound 1c] | – | 3.763 | hardly changes the inhibitory efficacy | increase drastically | about 20% | hardly rescues the bacteria | time to complete hydrolysis [1]: ≤ 2 h
3 | O=C(O)CNC(=O)[C@@H](CO)NC(=O)CCC(=O)OC[C@@H](NC(=O)C(Cl)Cl)[C@H](O)c1ccc([N+](=O)[O-])cc1 [Compound 1d] | – | 1.267 | hardly changes the inhibitory efficacy | increase drastically | ~10% | hardly rescues the bacteria | –
4 | NCCCC[C@@H](NC(=O)[C@@H](CCCCN)NC(=O)CCC(=O)OC[C@@H](NC(=O)C(Cl)Cl)[C@H](O)c1ccc([N+](=O)[O-])cc1)C(=O)O [Compound 2b] | – | 0.317 | hardly changes the inhibitory efficacy | increase drastically | about 20% | hardly rescues the bacteria | –
5 | NCCCC[C@H](NC(=O)[C@H](CCCCN)NC(=O)CCC(=O)OC[C@@H](NC(=O)C(Cl)Cl)[C@H](O)c1ccc([N+](=O)[O-])cc1)C(=O)O [Compound 2c] | – | 0.310 | hardly changes the inhibitory efficacy | increase drastically | about 20% | hardly rescues the bacteria | –
6 | COC(=O)CCC(=O)OC[C@@H](NC(=O)C(Cl)Cl)[C@H](O)c1ccc([N+](=O)[O-])cc1 [Compound 4b] | >200 | – | – | – | – | – | water solubility (Water solubility): water-insoluble
7 | CC[C@H]1OC(=O)[C@H](C)C(=O)[C@H](C)[C@@H](O[C@@H]2O[C@H](C)C[C@H](N(C)C)[C@H]2O)[C@](C)(OC)C[C@@H](C)C(=O)[C@H](C)[C@H]2N(CCCCn3cnc(-c4cccnc4)c3)C(=O)O[C@]12C [telithromycin] | – | – | – | – | – | – | cytotoxicity against HS-5 cells (HS-5 cells): relatively low cytotoxicity

The next lines start with results.

Row | MIC (E. coli (K-12)) [µM] | SMILES | apparent first-order rate constant of hydrolysis [2] [h⁻¹] | change of inhibitory efficacy on addition of exogenous PLE (E. coli) | intensity of static light scattering signal after addition of PLE [3] | reduction of antibacterial activity by deletion of a cytoplasmic esterase [4] | effect of deletion of ydgR, fepA or ompF on bacterial viability under treatment [5] | other results
8 | > 200 | O=C(O)CC[C@@H](NC(=O)[C@@H](CCC(=O)O)NC(=O)CCC(=O)OC[C@@H](NC(=O)C(Cl)Cl)[C@H](O)c1ccc([N+](=O)[O-])cc1)C(=O)O [Compound 2g] | – | – | – | – | – | –
9 | > 200 | O=C(O)C[C@@H](NC(=O)[C@@H](CC(=O)O)NC(=O)CCC(=O)OC[C@@H](NC(=O)C(Cl)Cl)[C@H](O)c1ccc([N+](=O)[O-])cc1)C(=O)O [Compound 2h] | – | – | – | – | – | –
10 | > 200 | C[C@@H](NC(=O)CCC(=O)OC[C@@H](NC(=O)C(Cl)Cl)[C@H](O)c1ccc([N+](=O)[O-])cc1)C(=O)O [Compound 4a] | – | – | – | – | – | –

Source: PMC6902879 (Journal of medicinal chemistry, 2019)
